Experimental data taken from publication PMC2700083, “A covalent peptide inhibitor of RGS4 identified in a focused one-bead, one compound library screen” (BMC Pharmacology, 2009).
In brackets after ≈: the same amount, converted by molar mass. Marks after values point to notes of the source that are not given here. *1 amine or outer side, *2 acyl side, *3 side chain or, on linkers, in order; H or OH if unused. Where a SMILES comes first, the peptide text is derived from it. Bridges are numbered along the chain shown (N, C = ends). CH2 = C([*:1])[*:2]

Key:
RGS8 [1] = biological target: T1, RGS8 (Homo sapiens, UniProt P57771); design: method as in earlier work; conditions: David Roman, in preparation; cited from earlier work
T1 construct: RGS8 full length; made in house
T1 sequence (P57771 1-180): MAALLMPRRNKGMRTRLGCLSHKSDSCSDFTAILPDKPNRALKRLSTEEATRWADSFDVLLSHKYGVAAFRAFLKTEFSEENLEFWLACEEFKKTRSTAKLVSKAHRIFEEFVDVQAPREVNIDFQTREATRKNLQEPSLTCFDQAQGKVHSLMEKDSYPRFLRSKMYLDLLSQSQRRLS

RGS4 [2] = biological target: T2, RGS4 (Rattus norvegicus, UniProt P49799); experiment: FCPIA (flow cytometry protein interaction assay), RGS4-Gαo interaction, wild type RGS4 (MBP-RGS4Δ51N); assay type: binding
T2 construct: made in house
T2 sequence (P49799 52-205 limits assumed): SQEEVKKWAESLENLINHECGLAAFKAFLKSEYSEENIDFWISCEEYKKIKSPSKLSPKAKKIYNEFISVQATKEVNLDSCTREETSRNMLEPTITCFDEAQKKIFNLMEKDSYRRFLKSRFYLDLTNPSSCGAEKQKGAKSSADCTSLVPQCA
Protocol: (§1) We recently described a bead-based screen in which 2.5 × 10^6 different peptide sequences were prepared as a OBOC library. Fluorescently labeled RGS4 was used to probe the library for peptides that bind RGS4 [5]. […] Since the majority of those hit peptides could bind tightly to the RGS without disrupting GAP activity, they were also tested in the flow cytometry protein interaction assay (FCPIA) (Figure 1), which measures the interaction between RGS4 and Gαo. In this method we used a Luminex flow cytometer to detect the binding of Alexa Fluor 532-labeled Gαo to biotinylated RGS4 on avidin beads in the presence of AMF (AlCl3, MgCl2, NaF and GDP) to put the Gα subunit into a transition state-like conformation. Peptides were tested at 50 μM except where limited by solubility (Table 1).
Figure 1 Hit peptides in the FCPIA. Hit peptides from Roof, et al. 2008 were tested at 50 μM unless otherwise indicated for ability to disrupt the RGS4-Gαo interaction as described using 25 nM Gα o-Alexa Fluor-532 and 5 nM wild type RGS4-biotin (mean ± S.E.M., n ≥ 3) *p < 0.05, **p < 0.01, ***p < 0.001 compared to no peptide.
(§2) Proteins were expressed, purified and labeled as described previously. The mutagenesis was done using the "QuickChange Multi Site-Directed Mutagenesis Kit" from Stratagene according to the manufacturer's protocol. The construct of RGS4 used in these studies is a maltose binding protein (MBP-) fusion protein of the RGS4 sequence from which the amphipathic N-terminal helix has been removed (i.e. MBP-RGS4Δ51N). For simplicity in the text, this will be referred to as RGS4. All other RGS proteins were human sequences and were used as Mpb fusions: RGS7 RGS domain (aa: 305–453), RGS8 full length, RGS16 full length, and RGS19ΔC11 (amino acids 1–209). To cleave RGS4Δ51N from the MBP-His6 construct for MS analysis, MBP-His6-RGS4Δ51N was treated with 15% MBP-His6-TEV protease S219V [11] for 22 hours at 4°C and purified over a Ni-NTA column.
FCPIA was performed as previously published.

[3] = Solubility in buffer by HPLC; assay type: physicochemical; conditions: in buffer, determined by HPLC; for solubility: read-out: Buffer Solubility
Protocol: Soluble peptides were synthesized on Rink resin, cleaved and cyclized as described previously. Peptide purity (at least 95%) and solubility were verified by high-performance liquid chromatography and correct mass was verified by MS analysis. ALogP calculations are from. Peptides were prepared as 5 mM stocks in DMSO.

RGS8 [4] = biological target: T1, RGS8; experiment: FCPIA, Gαo binding to RGS8; conditions: no wash, read-out: percent inhibition, RGS8
Protocol: as §1
5nd inhibited Gαo binding to a number of different RGS proteins (Figure 2). […] RGS19 and RGS7 are in the RZ and R7 families, respectively and show less inhibition by 5nd. Linear as well as bridged versions of peptide 5 were tested in the FCPIA since cyclization yields would most likely have been less then 100% in the synthesis of the library leaving some linear peptides present on each bead. […] This may be due to lack of structural rigidity necessary for the correct interaction of the peptide with the RGS protein or a role for chemical reactivity of the disulfide.
Figure 2 Characterization of hit 5. A) and B) Dose response curves for 5nd in the FCPIA with different RGS proteins (RGS Family), (mean ± S.E.M., n = 3) *p < 0.05, **p < 0.01, ***p < 0.001 compared to RGS4 at the same 5nd concentration. C) Peptides were tested at 50 μM as in Figure 1, (mean ± S.E.M., n ≥ 3) *p < 0.05, **p < 0.01, ***p < 0.001 compared to no peptide.
Figure 3 Irreversibility experiments. RGS-biotin on avidin beads was treated with 5nd (100 μM) or 5nm (100 μM) and then washed in buffer (with or without 1 mM DTT) or not washed and put in the FCPIA using RGS4 (A) or RGS8 (B) (mean ± S.E.M., n ≥ 2) *p < 0.05, **p < 0.01, ***p < 0.001 compared to no peptide (100%); #p < 0.05, ##p < 0.01, ###p < 0.001 compared to 5nd no wash.
as §2, with “To cleave RGS4Δ51N from the MBP-His6 construct for MS analysis, MBP-His6-RGS4Δ51N was treated with 15% MBP-His6-TEV protease S219V [11] for 22 hours at 4°C and purified over a Ni-NTA column.” left out

RGS4 [5] = biological target: T2, RGS4; experiment: FCPIA (flow cytometry protein interaction assay), RGS4-Gαo interaction, wild type RGS4 (MBP-RGS4Δ51N); assay type: binding; conditions: peptide 100 μM
[6] = peptide 50 μM, 25 nM Gαo-Alexa Fluor-532, 5 nM RGS4-biotin

| SMILES | % Inhibition of RGS4-Gαo (RGS4 [2]; [6]) | solubility [3] | other results |
| --- | --- | --- | --- |
| COS(=NS(=O)(=O)c1ccc(Cl)cc1)c1ccc([N+](=O)[O-])cc1 (stereo not drawn) [CCG-4986, methyl N-[(4-chlorophenyl)sulfonyl]-4-nitrobenzenesulfinimidoate] |  |  | activity against RGS8 (RGS8 [1]): no activity |
| CC(=O)N[C@@H](Cc1ccc(O)cc1)C(=O)N[C@@H](CC(N)=O)C(=O)N[C@H]1CSSC[C@@H](C(=O)N[C@@H](CCCCN)C(N)=O)NC(=O)[C@H](CCC(=O)O)NC(=O)CNC(=O)[C@H](CCC(N)=O)NC1=O [Peptide 1ad, Ac-YNCQGECK-NH2] (Ac-YNCQGECK-NH2; disulfide 3-7) | 14 ± 6% | 123 µM (≈ 121 µg/mL) |  |
| NCCCC[C@H](NC(=O)[C@@H]1CSSC[C@H](NC(=O)[C@H](CC(N)=O)NC(=O)[C@@H](N)Cc2ccc(O)cc2)C(=O)N[C@@H](CCC(N)=O)C(=O)NCC(=O)N[C@@H](CCC(=O)O)C(=O)N1)C(N)=O [Peptide 1nd, YNCQGECK-NH2] (H-YNCQGECK-NH2; disulfide 3-7) | 2 ± 4% | ≥ 420 µM |  |
| CC(=O)NCC(=O)N[C@H](C(=O)N[C@H]1CSSC[C@@H](C(=O)N[C@@H](Cc2c[nH]c3ccccc23)C(N)=O)NC(=O)[C@H]([C@@H](C)O)NC(=O)CNC(=O)[C@H](Cc2ccccc2)NC1=O)[C@@H](C)O [Peptide 2ad, Ac-GTCFGTCW-NH2] (Ac-GTCFGTCW-NH2; disulfide 3-7) |  | 30 µM (≈ 27.4 µg/mL) | % Inhibition of RGS4-Gαo (RGS4 [2]; peptide 10 μM): 10 ± 4 (10 μM) % |
| C[C@@H](O)[C@@H]1NC(=O)CNC(=O)[C@H](Cc2ccccc2)NC(=O)[C@@H](NC(=O)[C@@H](NC(=O)CN)[C@@H](C)O)CSSC[C@@H](C(=O)N[C@@H](Cc2c[nH]c3ccccc23)C(N)=O)NC1=O [Peptide 2nd, GTCFGTCW-NH2] (H-GTCFGTCW-NH2; disulfide 3-7) | 19 ± 3** % | 464 µM (≈ 404 µg/mL) |  |
| CC(=O)N[C@@H](CC(C)C)C(=O)N[C@H](C(=O)N[C@H]1CSSC[C@@H](C(=O)N[C@@H](CCC(N)=O)C(N)=O)NC(=O)[C@H](Cc2ccc(O)cc2)NC(=O)CNC(=O)[C@H](CCCCN)NC1=O)C(C)C [Peptide 3ad, Ac-LVCKGYCQ-NH2] (Ac-LVCKGYCQ-NH2; disulfide 3-7) | 10 ± 3% | 427 µM (≈ 407 µg/mL) |  |
| CC(C)C[C@H](N)C(=O)N[C@H](C(=O)N[C@H]1CSSC[C@@H](C(=O)N[C@@H](CCC(N)=O)C(N)=O)NC(=O)[C@H](Cc2ccc(O)cc2)NC(=O)CNC(=O)[C@H](CCCCN)NC1=O)C(C)C [Peptide 3nd, LVCKGYCQ-NH2] (H-LVCKGYCQ-NH2; disulfide 3-7) | 12 ± 2% | ≥ 470 µM |  |
| CSCC[C@@H]1NC(=O)[C@@H](NC(=O)[C@@H](NC(=O)[C@H](CCCCN)NC(C)=O)C(C)C)CSSC[C@@H](C(=O)N[C@H](C(N)=O)[C@@H](C)O)NC(=O)CNC(=O)CNC1=O [Peptide 4ad, Ac-KVCMGGCT-NH2] (Ac-KVCMGGCT-NH2; disulfide 3-7) | 9 ± 6% | 459 µM (≈ 384 µg/mL) |  |
| CSCC[C@@H]1NC(=O)[C@@H](NC(=O)[C@@H](NC(=O)[C@@H](N)CCCCN)C(C)C)CSSC[C@@H](C(=O)N[C@H](C(N)=O)[C@@H](C)O)NC(=O)CNC(=O)CNC1=O [Peptide 4nd, KVCMGGCT-NH2] (H-KVCMGGCT-NH2; disulfide 3-7) | 4 ± 3% | ≥ 470 µM |  |
| CC(=O)N[C@@H](Cc1ccc(O)cc1)C(=O)N[C@@H](Cc1c[nH]c2ccccc12)C(=O)N[C@H]1CSSC[C@@H](C(=O)N[C@@H](CCCCN)C(N)=O)NC(=O)[C@H](CC(C)C)NC(=O)CNC(=O)[C@H](CCCCN)NC1=O [Peptide 5ad, Ac-YWCKGLCK-NH2] (Ac-YWCKGLCK-NH2; disulfide 3-7) | 37 ± 3*** % | 464 µM (≈ 482 µg/mL) |  |
| CC(=O)N[C@@H](Cc1ccc(O)cc1)C(=O)N[C@@H](Cc1c[nH]c2ccccc12)C(=O)N[C@@H](CS)C(=O)N[C@@H](CCCCN)C(=O)NCC(=O)N[C@@H](CC(C)C)C(=O)N[C@@H](CS)C(=O)N[C@@H](CCCCN)C(N)=O [Peptide 5al, Ac-YWCKGLCK-NH2] (Ac-YWCKGLCK-NH2) |  | 460 µM (≈ 479 µg/mL) |  |
| CC(C)C[C@H](NC(=O)CNC(=O)[C@H](CCCCN)NC(=O)[C@H](CS)NC(=O)[C@H](Cc1c[nH]c2ccccc12)NC(=O)[C@@H](N)Cc1ccc(O)cc1)C(=O)N[C@@H](CS)C(=O)N[C@@H](CCCCN)C(N)=O [Peptide 5nl, YWCKGLCK-NH2] (H-YWCKGLCK-NH2) |  | 465 µM (≈ 465 µg/mL) |  |
| CC(C)C[C@@H]1NC(=O)CNC(=O)[C@H](CCCCN)NC(=O)[C@@H](NC(=O)[C@H](Cc2c[nH]c3ccccc23)NC(=O)[C@@H](N)Cc2ccc(O)cc2)CSCSC[C@@H](C(=O)N[C@@H](CCCCN)C(N)=O)NC1=O [Peptide 5nm, YWCKGLCK-NH2] (H-YWCKGLCK-NH2; linker 3-7 via CH2) |  | ≥ 470 µM | inhibition at 100 µM (RGS8 [4]): 18 ± 1%; % Inhibition of RGS4-Gαo (RGS4 [5]): 3 ± 0.1 (100 μM) % |
| CC(=O)N[C@@H](CCCCN)C(=O)N[C@@H](Cc1c[nH]cn1)C(=O)N[C@H]1CSSC[C@@H](C(=O)N[C@@H](Cc2ccc(O)cc2)C(N)=O)NC(=O)[C@H](Cc2ccccc2)NC(=O)CNC(=O)[C@H](Cc2ccc(O)cc2)NC1=O [Peptide 6ad, Ac-KHCYGFCY-NH2] (Ac-KHCYGFCY-NH2; disulfide 3-7) | 27 ± 4*** % | 421 µM (≈ 446 µg/mL) |  |
| NCCCC[C@H](N)C(=O)N[C@@H](Cc1c[nH]cn1)C(=O)N[C@H]1CSSC[C@@H](C(=O)N[C@@H](Cc2ccc(O)cc2)C(N)=O)NC(=O)[C@H](Cc2ccccc2)NC(=O)CNC(=O)[C@H](Cc2ccc(O)cc2)NC1=O [Peptide 6nd, KHCYGFCY-NH2] (H-KHCYGFCY-NH2; disulfide 3-7) |  |  | % Inhibition of RGS4-Gαo (RGS4 [2]; peptide 25 μM): 23 ± 15 (25 μM) * %; Buffer Solubility [3]: Low |
| CC[C@H](C)[C@@H]1NC(=O)CNC(=O)[C@H]([C@@H](C)O)NC(=O)[C@@H](NC(=O)[C@H](CCCCN)NC(=O)[C@@H](NC(C)=O)C(C)C)CSSC[C@@H](C(=O)N[C@@H](CCC(=O)O)C(N)=O)NC1=O [YJ34, Ac-Val-Lys-c [Cys-Thr-Gly-Ile-Cys]-Glu-NH2, S-S, reference compound] (Ac-VKCTGICE-NH2; disulfide 3-7) |  | 80 µM (≈ 71.3 µg/mL) | % Inhibition of RGS4-Gαo (RGS4 [2]; peptide 40 μM): -17 ± 4 (40 μM) % |
